Structures can show the parent of a compound that is named as a salt.
Experiments:
[1] = molecular target: T1, c-KIT kinase (Seq. ID No. 1) (Homo sapiens, UniProt P10721); experiment: c-KIT kinase assay (pyruvate kinase/lactate dehydrogenase coupled, A340); format: biochemical; conditions: enzymatic assay, ATP 200 μM; read-out: cKIT
T1 construct: c-KIT (cKIT residues T544-V976, from ProQinase, 5.4 nM); purchased ProQinase
Experimental: Activity of c-KIT kinase (Seq. ID No. 1) was determined by following the production of ADP from the kinase reaction through coupling with the pyruvate kinase/lactate dehydrogenase system (e.g., Schindler et al. Science 2000, 289, pp. 1938-1942). In this assay, the oxidation of NADH (thus the decrease at A340 nm) was continuously monitored spectrophotometrically. The reaction mixture (100 μl) contained c-KIT (cKIT residues T544-V976, from ProQinase, 5.4 nM), polyE4Y (1 mg/mL), MgCl2 (10 mM), pyruvate kinase (4 units), lactate dehydrogenase (0.7 units), phosphoenol pyruvate (1 mM), and NADH (0.28 mM) in 90 mM Tris buffer containing 0.2% octyl-glucoside and 1% DMSO, pH 7.5. Test compounds were incubated with c-KIT (Seq. ID No. 1) and other reaction reagents at 22° C. for less than 2 min before ATP (200 μM) was added to start the reaction. The absorption at 340 nm was monitored continuously for 0.5 hours at 30° C. on Polarstar Optima plate reader (BMG). The reaction rate was calculated using the 0 to 0.5 h time frame. Percent inhibition was obtained by comparison of reaction rate with that of a control (i.e., with no test compound). IC50 values were calculated from a series of percent inhibition values determined at a range of inhibitor concentrations using software routines as implemented in the GraphPad Prism software package.

EBC-1 cells = experiment: EBC-1 cell proliferation assay (resazurin); format: cell-based; conditions: Homo sapiens, 67 h + 5 h resazurin, read-out: EBC1 Proliferation
Experimental: (§1) EBC-1 cells (catalog #JCRB0820) were obtained from the Japan Health Science Research Resources Bank, Osaka, Japan. Briefly, cells were grown in DMEM supplemented with 10% characterized fetal bovine serum (Invitrogen, Carlsbad, Calif.) at 37° C., 5% CO2, 95% humidity. Cells were allowed to expand until reaching 70-95% confluency at which point they were subcultured or harvested for assay use.
(§2) A serial dilution of test compound was dispensed into a 96-well black clear bottom plate (Corning, Corning, N.Y.). For each cell line, five thousand cells were added per well in 200 μL complete growth medium. Plates were incubated for 67 hours at 37° C., 5% CO2, 95% humidity. At the end of the incubation period 40 μL of a 440 μM solution of resazurin (Sigma, St. Louis, Mo.) in PBS was added to each well and incubated for an additional 5 hours at 37° C., 5% CO2, 95% humidity. Plates were read on a Synergy2 reader (Biotek, Winooski, Vt.) using an excitation of 540 nm and an emission of 600 nm. Data was analyzed using Prism software (GraphPad, San Diego, Calif.) to calculate IC50 values.

[2] = molecular target: T2, Phospho-MET in EBC-1 cells (Homo sapiens, UniProt P08581); experiment: EBC-1 phospho-MET ELISA; format: cell-based; conditions: 6 h compound, 40 ng/mL HGF 10 min, read-out: EBC1 pMET
T2 construct: endogenous in cells; host or cells: EBC-1 (JCRB0820)
T2 sequence (P08581 25-1390): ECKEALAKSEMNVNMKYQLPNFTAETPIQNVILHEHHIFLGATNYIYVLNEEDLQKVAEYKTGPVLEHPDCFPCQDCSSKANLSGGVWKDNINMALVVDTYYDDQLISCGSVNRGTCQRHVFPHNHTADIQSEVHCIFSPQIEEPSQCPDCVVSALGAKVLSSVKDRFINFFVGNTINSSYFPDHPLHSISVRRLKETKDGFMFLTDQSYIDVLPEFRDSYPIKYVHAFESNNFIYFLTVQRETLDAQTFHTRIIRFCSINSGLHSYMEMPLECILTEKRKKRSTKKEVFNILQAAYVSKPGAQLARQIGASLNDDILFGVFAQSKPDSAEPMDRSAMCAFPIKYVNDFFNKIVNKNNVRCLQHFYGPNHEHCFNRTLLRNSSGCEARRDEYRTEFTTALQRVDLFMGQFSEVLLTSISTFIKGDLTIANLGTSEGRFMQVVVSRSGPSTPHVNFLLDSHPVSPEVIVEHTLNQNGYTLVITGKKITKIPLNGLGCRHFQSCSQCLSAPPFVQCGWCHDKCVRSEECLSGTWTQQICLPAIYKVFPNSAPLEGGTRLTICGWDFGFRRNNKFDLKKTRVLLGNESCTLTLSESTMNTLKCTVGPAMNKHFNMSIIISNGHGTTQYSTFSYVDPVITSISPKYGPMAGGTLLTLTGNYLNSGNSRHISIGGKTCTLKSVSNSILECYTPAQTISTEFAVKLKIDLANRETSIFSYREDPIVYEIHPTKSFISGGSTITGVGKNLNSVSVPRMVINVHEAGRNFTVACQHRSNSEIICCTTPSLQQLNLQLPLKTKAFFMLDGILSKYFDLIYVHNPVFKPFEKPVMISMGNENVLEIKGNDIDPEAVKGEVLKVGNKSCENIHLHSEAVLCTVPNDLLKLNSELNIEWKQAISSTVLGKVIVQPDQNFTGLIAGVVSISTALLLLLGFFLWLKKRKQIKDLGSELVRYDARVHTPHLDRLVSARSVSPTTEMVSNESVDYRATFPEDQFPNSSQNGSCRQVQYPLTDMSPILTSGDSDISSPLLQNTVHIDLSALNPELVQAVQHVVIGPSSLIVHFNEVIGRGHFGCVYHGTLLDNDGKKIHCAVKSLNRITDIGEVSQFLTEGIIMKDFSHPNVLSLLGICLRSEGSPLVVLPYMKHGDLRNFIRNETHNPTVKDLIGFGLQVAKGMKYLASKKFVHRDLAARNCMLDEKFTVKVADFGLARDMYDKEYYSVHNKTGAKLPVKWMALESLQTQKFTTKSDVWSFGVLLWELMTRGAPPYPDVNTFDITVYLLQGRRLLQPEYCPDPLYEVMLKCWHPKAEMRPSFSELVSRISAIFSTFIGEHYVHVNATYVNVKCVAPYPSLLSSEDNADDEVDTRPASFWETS
Experimental: as §1
Fifteen thousand cells in DMEM supplemented with 0.5% characterized fetal bovine serum (FBS; Invitrogen, Carlsbad, Calif.) were added per well in a 96-well black clear bottom plate (Corning, Corning, N.Y.). Cells were then incubated overnight at 37 degrees Celsius, 5% CO2, 95% humidity. A serial dilution of test compound was dispensed into another 96-well black clear bottom plate (Corning, Corning, N.Y.) containing DMEM supplemented with 0.5% FBS. Diluted compound was then added to plates containing cells and incubated for 6 hours at 37 degrees Celsius, 5% CO2, 95% humidity. Cells were stimulated with 40 ng/mL HGF (R&D Systems, Minneapolis, Minn.) for 10 minutes, and then lysed. Phospho-MET in cell lysates was detected using the DuoSet IC Human Phospho-HGF R/c-MET ELISA (R&D Systems, Minneapolis, Minn.). Data was analyzed using Prism software (Graphpad, San Diego, Calif.) to calculate IC50 values.

MKN-45 cells = experiment: MKN-45 cell proliferation assay (resazurin); format: cell-based; conditions: Homo sapiens, 67 h + 5 h resazurin
Experimental: as §1, with “MKN-45” for “EBC-1”, “#JCRB0254)” for “#JCRB0820)”, “RPMI 1640 media” for “DMEM”
as §2, with “Corning, N.Y.). Five thousand cells” for “Corning, N.Y.). For each cell line, five thousand cells”, “well and plates were incubated for” for “well and incubated for”, “additional 5 h at 37°” for “additional 5 hours at 37°”

[3] = molecular target: T3, Phospho-MET in MKN-45 cells (Homo sapiens, UniProt P08581); experiment: MKN-45 phospho-MET ELISA; format: cell-based; conditions: 6 h compound, 40 ng/mL HGF 10 min, read-out: MKN-45 pMET
T3 construct: endogenous in cells; host or cells: MKN-45 (JCRB0254)
T3 sequence (P08581 25-1390): as above
Experimental: as §1, with “MKN-45” for “EBC-1”, “#JCRB0254)” for “#JCRB0820)”, “RPMI 1640 media” for “DMEM”
Twenty-five thousand cells in RPMI-1640 supplemented with 10% characterized fetal bovine serum (Invitrogen, Carlsbad, Calif.) were added per well in a 96-well black clear bottom plate (Corning, Corning, N.Y.). Cells were then incubated overnight at 37 degrees Celsius, 5% CO2, 95% humidity. Media was then aspirated and cells were washed with PBS. A serial dilution of test compound was dispensed into another 96-well black clear bottom plate (Corning, Corning, N.Y.) containing serum-free RPMI-1640. Compound was added to plates containing cells and incubated for 6 hours at 37 degrees Celsius, 5% CO2, 95% humidity. Cells were stimulated with 40 ng/mL HGF (R&D Systems, Minneapolis, Minn.) for 10 minutes, and then lysed. Phospho-MET in cell lysates was detected using the DuoSet IC Human Phospho-HGF R/c-MET ELISA (R&D Systems, Minneapolis, Minn.). Data was analyzed using Prism software (Graphpad, San Diego, Calif.) to calculate IC50 values.

T1 sequence (P10721 with tags, fused parts or gaps): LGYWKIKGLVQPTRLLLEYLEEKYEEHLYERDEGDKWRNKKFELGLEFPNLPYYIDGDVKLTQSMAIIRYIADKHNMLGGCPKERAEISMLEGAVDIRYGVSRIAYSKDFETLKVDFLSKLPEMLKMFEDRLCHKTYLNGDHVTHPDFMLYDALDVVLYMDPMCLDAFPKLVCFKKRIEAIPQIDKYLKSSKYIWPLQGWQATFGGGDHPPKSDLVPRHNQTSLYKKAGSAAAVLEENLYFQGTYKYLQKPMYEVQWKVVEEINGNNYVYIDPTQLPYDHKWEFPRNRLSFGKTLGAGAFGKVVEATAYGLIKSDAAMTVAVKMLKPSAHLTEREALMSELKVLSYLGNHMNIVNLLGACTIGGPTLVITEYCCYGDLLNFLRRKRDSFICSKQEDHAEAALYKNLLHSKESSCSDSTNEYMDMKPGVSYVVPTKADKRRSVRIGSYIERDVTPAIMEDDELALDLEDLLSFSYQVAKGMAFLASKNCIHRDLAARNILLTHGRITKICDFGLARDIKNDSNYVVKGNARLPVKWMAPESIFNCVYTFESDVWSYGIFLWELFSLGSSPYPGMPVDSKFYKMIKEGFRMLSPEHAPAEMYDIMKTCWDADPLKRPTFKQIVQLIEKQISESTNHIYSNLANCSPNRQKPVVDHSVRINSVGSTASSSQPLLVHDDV

IC50 [1]	IC50 [2]	IC50 (MKN-45 cells)	IC50 [3]	Compound	IC50 (EBC-1 cells)
≤ 100 nM	≤ 100 nM	≤ 100 nM	≤ 100 nM	Cn1cc(-c2cc(Oc3cc(F)c(NC(=O)c4cccn(-c5ccc(F)cc5)c4=O)cc3F)ccn2)cn1 [Example 1, N-(2,5-difluoro-4-((2-(1-methyl-1H-pyrazol-4-yl)pyridin-4-yl)oxy)phenyl)-1-(4-fluorophenyl)-2-oxo-1,2-dihydropyridine-3-carboxamide]	≤ 100 nM
> 1000 nM	≤ 100 nM	≤ 100 nM	≤ 100 nM	CCOc1ccn(-c2ccc(F)cc2)c(=O)c1C(=O)Nc1cc(F)c(Oc2ccnc(-c3cnn(C)c3)c2)cc1F [Example 2, N-(2,5-difluoro-4-(2-(1-methyl-1H-pyrazol-4-yl)pyridin-4-yloxy)phenyl)-4-ethoxy-1-(4-fluorophenyl)-2-oxo-1,2-dihydropyridine-3-carboxamide]	≤ 100 nM
> 1000 nM	≤ 100 nM		≤ 100 nM	O=C(Nc1cc(F)c(Oc2ccnc(-c3cnn(CCO)c3)c2)cc1F)c1cccn(-c2ccc(F)cc2)c1=O [Example 3, N-(2,5-difluoro-4-((2-(1-(2-hydroxyethyl)-1H-pyrazol-4-yl)pyridin-4-yl)oxy)phenyl)-1-(4-fluorophenyl)-2-oxo-1,2-dihydropyridine-3-carboxamide hydrochloride]	
> 1000 nM		100 to 1000 nM		CCNc1ccn(-c2ccc(F)cc2)c(=O)c1C(=O)Nc1cc(F)c(Oc2ccnc(-c3cnn(C)c3)c2)cc1F [Example 5, N-(2,5-difluoro-4-((2-(1-methyl-1H-pyrazol-4-yl)pyridin-4-yl)oxy)phenyl)-4-(ethylamino)-1-(4-fluorophenyl)-2-oxo-1,2-dihydropyridine-3-carboxamide]	100 to 1000 nM

Source: patent publication US9012635B2, “Pyridone amides and analogs exhibiting anti-cancer and anti-proliferative activities” (Deciphera Pharmaceuticals, LLC, priority 2013, dated 2015)
